Experimental data published in EP0178388A1, “Quinolinecarboxylic acid derivatives” (KYORIN PHARMACEUTICAL CO., LTD., priority 1984, dated 1986).
≈ marks a conversion by molar mass, not a printed value. Counter-ions that a name gives are not always drawn.

Assays:
[1] = test system: B. distasonis 8503; assay: In vitro antibacterial activity, MIC (standard strain); assay type: cell-based; details: Parabacteroides distasonis, B. distasonis 8503, 10^6 cells/ml
[2] = test system: Propionibacterium acens 11828; assay: as above; assay type: cell-based; details: Propionibacterium acens 11828, 10^6 cells/ml

SMILES | MIC [1] | MIC [2]
CC1CN(c2c(F)cc3c(=O)c(C(=O)O)cn(C4CC4)c3c2F)CCN1 (stereo not drawn) [Example 2, l-Cyclopropyl-6,8-difluoro-l,4-dihydro-7-(3-methyl-l-piperazinyl)-4-oxoquinoline-3-carboxylic acid] | 1.56 µg/mL (≈ 4.29 µM) | –
CC1CN(c2c(F)cc3c(=O)c(C(=O)O)cn(C4CC4)c3c2Cl)CCN1 (stereo not drawn) [Example 5, 8-Chloro-l-cyclopropyl-6-fluoro-1,4-dihydro-7-(3-methyl-1-piperazinyl)-4-oxoquinoline-3-carboxylic acid hydrochloride] | – | 0.39 µg/mL
